US8198311B2, “Modulators of glucocorticoid receptor, AP-1, and/or NF-κB activity and use thereof” (Bristol-Myers Squibb Company, priority 2006, dated 2012)

The compounds below were run on AP-1 induced transcriptional activity (assay: Cellular Transrepressional Assay (AP-1 luciferase reporter in A549 cells, PMA-activated)). Conditions: Homo sapiens, A549, 7 h, pAP-1-Luc, 10 ng/ml PMA, read-out: AP-1 (EC50, nM) (Cellular Transrepression Assay).
Assay type: cell-based
Protocol: To measure the ability of test molecules to inhibit AP-1 induced transcriptional activity an A549 cell was utilized which was stably transfected with a plasmid containing 7×AP-1 DNA binding sites (pAP-1-Luc plasmid, Stratagene Co. La Jolla, Calif.) followed by the gene for luciferase. Cells were activated with 10 ng/ml of phorbol myristic acid (PMA) plus or minus test molecules for 7 hours. After 7 hours a luciferase reagent was added to measure luciferase enzymatic activity in the cell. After a 10 minute incubation of luciferase reagent with cells, luminescence was measured in a TopCount luminescence counter. Repression of AP-1 activity was calculated as the percentage decrease in the signal induced by PMA alone. Test molecules were analyzed in the concentration range from 0.1 nM to 40 μM. EC50s were determined by using standard curve fitting methods such as Excel fit (Microsoft Co.).
Compound CC(C)(CNC(=O)C(F)(F)F)[C@@H](c1ccccc1)c1ccc2c(cnn2-c2ccc(F)cc2)c1 [(S)-16, (S)-2,2,2-trifluoro-N-(3-(1-(4-fluorophenyl)-1H-indazol-5-yl)-2,2-dimethyl-3-phenylpropyl)acetamide] has an EC50 of 2270 nM.
With CC(C)CCC(=O)NCC(C)(C)[C@@H](c1ccccc1)c1ccc2c(cnn2-c2ccc(F)cc2)c1 [Example 2, (S)-N-(3-(1-(4-fluorophenyl)-1H-indazol-5-yl)-2,2-dimethyl-3-phenylpropyl)-4-methylpentanamide] the EC50 was 508 nM.
For CC(C)(CNC(=O)Cc1ccccc1)[C@@H](c1ccccc1)c1ccc2c(cnn2-c2ccc(F)cc2)c1 [Example 3, (S)-N-(3-(1-(4-fluorophenyl)-1H-indazol-5-yl)-2,2-dimethyl-3-phenylpropyl)-2-phenylacetamide], the EC50 was 2520 nM.
For CC(C)C(=O)NCC(C)(C)[C@@H](c1ccccc1)c1ccc2c(cnn2-c2ccc(F)cc2)c1 [Example 4, (S)-N-(3-(1-(4-fluorophenyl)-1H-indazol-5-yl)-2,2-dimethyl-3-phenylpropyl)isobutyramide], the EC50 was 1280 nM.
CC(C)(C)C(=O)NCC(C)(C)[C@@H](c1ccccc1)c1ccc2c(cnn2-c2ccc(F)cc2)c1 [Example 5, (S)-N-(3-(1-(4-fluorophenyl)-1H-indazol-5-yl)-2,2-dimethyl-3-phenylpropyl)pivalamide] was tested, and the EC50 was 1060 nM.
Compound CC(C)(CNS(=O)(=O)C1CC1)[C@@H](c1ccccc1)c1ccc2c(cnn2-c2ccc(F)cc2)c1 [Example 12, (S)-N-(3-(1-(4-fluorophenyl)-1H-indazol-5-yl)-2,2-dimethyl-3-phenylpropyl)cyclopropanesulfonamide] has an EC50 of 211 nM.
CC(C)(CNS(=O)(=O)CS(C)(=O)=O)[C@@H](c1ccccc1)c1ccc2c(cnn2-c2ccc(F)cc2)c1 [Example 14, (S)-N-(3-(1-(4-fluorophenyl)-1H-indazol-5-yl)-2,2-dimethyl-3-phenylpropyl)-1-(methylsulfonyl)methanesulfonamide] showed an EC50 of 1860 nM.
CN(C)S(=O)(=O)NCC(C)(C)[C@@H](c1ccccc1)c1ccc2c(cnn2-c2ccc(F)cc2)c1 [Example 15, (S)-N-dimethyl-N′-(3-(1-(4-fluorophenyl)-1H-indazol-5-yl)-2,2-dimethyl-3-phenylpropyl)propane-1-sulfamide] gave an EC50 of 2780 nM.
CC(C)(CNC(=O)c1cccs1)[C@H](c1ccccc1)c1ccc2c(cnn2-c2ccc(F)cc2)c1 [Example 20, (R)-N-(3-(1-(4-fluorophenyl)-1H-indazol-5-yl)-2,2-dimethyl-3-phenylpropyl)thiophene-2-carboxamide] was tested, and the EC50 was 573 nM.
